Data published in patent US6855735B2, “Ketamine treatment of restless legs syndrome” (Temple University of the Commonwealth System of Higher …, priority 2002, dated 2005).
Values joined by “and” are separate entries in the source; they are usually repeats but may differ in a detail not shown here. Equal values may be shown once.

What was measured:
[1] = test system: patients with RLS; assay: Case reports: oral ketamine in patients with RLS (Examples 1-6); format: in vivo, human; conditions: for earlier treatment / earlier treatment of back pain, neurogenic claudication and RLS: before ketamine
Method: A patient presented with a history of back pain, neurogenic claudication, and RLS. Treatment with the dopaminergic agonist, pergolide and oxycodone had been ineffective. In addition to RLS, the patient's past history included prior spinal surgery, insulin-dependent diabetes mellitus, sleep apnea, and congestive heart failure. Their family history was positive for RLS.
The patient was prescribed amitriptyline 25 mg at bedtime and gabapentin 300 mg three times daily in addition to their other medications.
After consenting to the evaluation of single dose efficacy of oral ketamine, the patient received 30 mg of ketamine mixed in 50 cc (or ml) of water. After 20 minutes of observation, the patient noted that their VAS score had improved to 2/10.
A patient with a history of chronic lower back pain, spinal stenosis, scoliosis, and RLS complained of worsening neurogenic claudication. Their VAS was 7/10.
The patient was then treated with 50 mg of oral ketamine.
A patient presented with a history of cardiac transplant, on immune suppressive medication, could not be treated with steroids for with spinal stenosis, neurogenic claudication, and RLS.
A patient presented with a history of multiple back surgeries and depression. […] Opioids were restarted to control the return of the patient's back pain.
A patient presented with a history of a renal transplant with documented lumbar radiculopathy and severe RLS on immunosuppressive treatment. The RLS symptoms were so severe that the patient could not keep their legs still at their initial office visit. […] While the RLS remitted during 4 months of treatment with 25 mg of ketamine daily, opioids were added to the treatment for pain control.
A dialysis patient presented with a history of failed back surgery, spinal stenosis and severe leg pain which responded to treatment with methadone but maintained severe RLS where the patient was not able to sleep more than 2 hours/night.

[2] = test system: patients with RLS; assay: Patients treated with doses of oral ketamine (Examples 7-23, Table); format: in vivo, human
Method: In the Table shown below, patients were treated with doses of oral ketamine.
(§1) The patients, shown in Examples 7-23, were treated with doses of liquid oral ketamine or oral ketamine in tablet form. There were no patients who had serum levels of ketamine measured that reached the levels reported for therapeutic analgesic effect of ketamine, i.e., 200 ng/ml.

[3] = Serum levels of ketamine in patients treated with low doses of oral ketamine; format: in vivo, human
Method: Also, it is suitable that the dose of ketamine administered is less than the dose generally administered for alleviation of pain. For example, since only about 20% of an oral dose of ketamine is absorbed, the successful treatment of a patient with 2 mg of ketamine for RLS over a 24 hour period would equal less than 0.001 mg/kg/hour. At these doses, the threshold serum level for pyschotomimetic side effects (on the order of 50 ng/ml) is not reached. Moreover, the threshold serum level for pain relief (on the order of 200 ng/ml) is also not approached. […] Thus, the serum levels at which oral ketamine acts to relieve RLS are substanitially lower than those reported for pain relief. Treatment with low dosages of oral ketamine provides relief for subjects suffering from or affected by RLS by alleviating symptoms associated with RLS, and avoids the side effects generally encountered in the use of ketamine for the treatment of conscious patients and/or other therapies for RLS described above.
as §1

[4] = cited from earlier work
[5] = test system: NMDA receptor; conditions: primary metabolite of oral ketamine; cited from earlier work
[6] = Example 1, amitriptyline 25 mg at bedtime and gabapentin 300 mg three times daily together, a month later
[7] = one patient per row (Examples 7-23), oral ketamine 10-100 mg/24 hours (col I), treatment 1-8 months (col G)
[8] = Example 3, oral 20 mg at bedtime

Q: What does the source list for CN(C)CCC=C1c2ccccc2CCc2ccccc21 [amitriptyline]?
A: symptoms [1, 6]: no improvement in their symptoms; verbal analog pain score (VAS) [1, 6]: 6/10

Q: For NCC1(CC(=O)O)CCCCC1 [gabapentin], which symptoms [1, 6] is on record?
A: The symptoms was “no improvement in their symptoms”.

Q: What about the “verbal analog pain score (VAS)” value [1, 6] of the same compound?
A: The value was 6/10.

Q: And the earlier treatment ([1]; Example 2)?
A: The earlier treatment was “without success”.

Q: For CNC1(c2ccccc2Cl)CCCCC1=O (centres unmarked) [ketamine, (2-o-chlorophenyl)-2-(methylamino)-cyclohexanone], which “F = VAS or visual analog scale for pain/walking ability (improvement)” value [2, 7] is on record?
A: Its value is 80% (4×) and 60% (5×) and 90% and 70% (4×) and 50% (2×) and 40%.

Q: And the “J = complications” value [2, 7]?
A: The value was “No (14×) and Yes (2×) and Rash”.

Q: What about the RLS symptoms ([2]; patients of Examples 7-23, low ketamine dosage) of the same compound?
A: The RLS symptoms was “improved related limb sensations, motor restlessness and insomnia”.

Q: What about the “serum levels of ketamine” value ([3]; patients of Examples 7-23 who had serum levels measured, liquid or tablet oral ketamine) of the same compound?
A: Its value is less than 200 ng/mL.

Q: What about the “serum levels of ketamine” value ([3]; patients treated with low doses of oral ketamine for RLS, commercially available tests) of the same compound?
A: The value was “not to have detectable serum levels”.

Q: What about the “threshold serum level for pain relief” value ([4]; in vivo) of the same compound?
A: Its value is roughly 200 ng/mL.

Q: And the “fraction of an oral dose absorbed” value ([4]; oral)?
A: Its value is “about 20%”.

Q: And the “verbal analog pain score (VAS)” value ([1]; Example 1, person, single oral dose 30 mg ketamine in 50 cc water, after 20 minutes, VAS before 6/10)?
A: The value was 2/10.

Q: And the “sleep and RLS” value ([1]; Example 1, oral 30 mg twice a day for 6 months)?
A: Its value is “improvement in sleep and RLS”.

Q: What about the “side effects after single dose” value ([1]; Example 1, single oral dose 30 mg) of the same compound?
A: Its value is “no dizziness, or other distressing symptoms”.

Q: And the VAS ([1]; Example 2, person, 50 mg oral ketamine, within 15 minutes, VAS before 7/10)?
A: Its VAS is 2/10.

Q: And the walking ([1]; Example 2, 50 mg oral ketamine, within 15 minutes)?
A: The walking was “subjective improvement in walking”.

Q: And the “sleep and RLS symptoms” value ([1]; Example 2, oral 40 mg twice a day, a month following the trial)?
A: Its value is “significant improvement in their sleep and RLS symptoms”.

Q: What about the pain relief [1, 8] of the same compound?
A: The pain relief was “no pain relief”.

Q: What about the side effects [1, 8] of the same compound?
A: Its side effects is “psychotomimetic side effects”.

Q: What about the RLS ([1]; Example 3, oral 20 mg at bedtime, persisted after ketamine was stopped) of the same compound?
A: The RLS was “resolution of RLS”.

Q: And the “RLS symptoms and sleep” value ([1]; Example 4, oral daily 25 mg)?
A: Its value is “lessened RLS symptoms and improved sleep”.

Q: What about the “pain and RLS” value ([1]; Example 5, renal transplant patient, oral daily 10 mg) of the same compound?
A: The value was “pain relief and resolution of RLS”.

Q: And the RLS ([1]; Example 5, 25 mg daily, 4 months of treatment)?
A: The RLS was “RLS remitted”.

Q: What about the “reduction of RLS symptoms” value ([1]; Example 6, dialysis patient, 2 mg oral at bedtime) of the same compound?
A: Its value is “more than 50%”.

Q: And the “tolerability (psychotomimetic effects)” value ([1]; Example 6, dialysis patient, 20 mg daily oral)?
A: The value was “could not tolerate”.

Q: And the psychotomimetic side effects ([1]; Example 6, 2 mg oral at bedtime)?
A: The psychotomimetic side effects was “no psychotomimetic side effects”.

Q: And the sleep duration ([1]; Example 6, 2 mg oral at bedtime, before not more than 2 hours/night)?
A: Its sleep duration is “more than 4.5 hrs./night”.

Q: For CCC(=O)C(CC(C)N(C)C)(c1ccccc1)c1ccccc1 (centres unmarked) [methadone], which severe leg pain ([1]; Example 6, dialysis patient, severe RLS maintained) is on record?
A: Its severe leg pain is “responded”.

Q: Which “potency relative to ketamine” value [5] does the source give for NC1(c2ccccc2Cl)CCCCC1=O (centres unmarked) [norketamine] here?
A: The value was “one-third to one-fifth”.

Q: With COc1ccc2c3c1O[C@H]1C(=O)CC[C@@]4(O)[C@@H](C2)N(C)CC[C@]314 [oxycodone] as the compound, how does the “earlier treatment of back pain, neurogenic claudication and RLS” value ([1]; Example 1) read?
A: Its value is “ineffective”.

Q: With CCCN1C[C@H](CSC)C[C@@H]2c3cccc4[nH]cc(c34)C[C@H]21 [pergolide] as the compound, how does the “earlier treatment of back pain, neurogenic claudication and RLS” value ([1]; Example 1) read?
A: Its value is “ineffective”.

Q: For C=C[C@H]1C[N@@]2CC[C@H]1C[C@H]2[C@H](O)c1ccnc2ccc(OC)cc12 [quinine], which earlier treatment ([1]; Example 2) is on record?
A: Its earlier treatment is “without success”.

Q: For CS(=O)(=O)c1ccc(C2=C(c3ccccc3)C(=O)OC2)cc1 [rofecoxib], which earlier treatment ([1]; Example 2) is on record?
A: The earlier treatment was “without success”.

Q: For COc1cccc(C2(O)CCCCC2CN(C)C)c1 (centres unmarked) [tramadol], which earlier treatment ([1]; Example 2) is on record?
A: Its earlier treatment is “without success”.
